pIC50: −log10 of the molar value.
Tested on: Jurkat
Assay: MTS proliferation assay, Jurkat
Type: cell-based, human
Conditions: 72 h incubation, read-out: MTS proliferation assay IC 50 Jurkat
Outline: (§1)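 Absorbance at 492 nm after 3 h with MTS reagent gave proliferation. This followed 72 h compound exposure (final 0.3, 1, 3, 10 μM) at 37 °C and 7.5% CO2. Cells had been plated 24 h earlier in complete RPMI-1640 with 5% or 10% FCS.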

SMILES	pIC50
Nc1nonc1-c1nc2ccccc2n1COc1ccc(Cl)cc1 [Example 88]	6.00 to 7.00

Tested on: Jily
Assay: MTS proliferation assay, Jily
Type: cell-based
Conditions: 72 h incubation, read-out: MTS proliferation assay IC 50 Jily
Outline: (§2)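 Antiproliferative read-out by MTS (3 h, A492) after 72 h compound exposure at final 0.3–10 μM (four concentrations). Cells were plated 24 h earlier in RPMI-1640 containing 5% or 10% FCS, cultured at 37 °C with 7.5% CO2.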

SMILES	pIC50
Nc1nonc1-c1nc2ccccc2n1COc1ccc(Cl)cc1 [Example 88]	6.00 to 7.00

Tested on: HT1080
Assay: MTS proliferation assay, HT1080
Type: cell-based, human
Conditions: HT1080, 72 h incubation; read-out: MTS proliferation assay IC 50 HT1080
Outline: as §1

SMILES	pIC50
Nc1nonc1-c1nc2ccccc2n1COc1ccc(Cl)cc1 [Example 88]	6.00 to 7.00

Tested on: HeLa
Assay: MTS proliferation assay, HeLa
Type: cell-based, human
Conditions: 72 h incubation, read-out: MTS proliferation assay IC 50 HeLa
Outline: as §1

SMILES	pIC50
Nc1nonc1-c1nc2ccccc2n1COc1ccc(Cl)cc1 [Example 88]	6.00 to 7.00

Tested on: MRC5
Assay: MTS proliferation assay, MRC5
Type: cell-based
Conditions: MRC5, 72 h incubation; read-out: MTS proliferation assay IC 50 MRC5
Outline: as §2

SMILES	pIC50
Nc1nonc1-c1nc2ccccc2n1COc1ccc(Cl)cc1 [Example 88]	6.00 to 7.00

Tested on: adherent cells or suspension cells
Assay: Hoechst 33342 nuclear staining (fraction of apoptotic nuclei)
Type: cell-based
Parameters: key: 0 relating to no activity; 1 relating to weak activity comprising less than 70% of the cells; score 2 relating to strong activity comprising more than 70% of the cells
Conditions: HeLa, conc 0.01 μm

SMILES	Hoechst 33342 nuclear staining score
Nc1nonc1-c1nc2ccccc2n1COc1ccc(Cl)cc1 [Example 88]	0

Same assay, conditions: HeLa, conc 0.1 μm

SMILES	Hoechst 33342 nuclear staining score
Nc1nonc1-c1nc2ccccc2n1COc1ccc(Cl)cc1 [Example 88]	0

Same assay, conditions: HeLa, conc 1 μm

SMILES	Hoechst 33342 nuclear staining score
Nc1nonc1-c1nc2ccccc2n1COc1ccc(Cl)cc1 [Example 88]	2 (score 2 relating to strong activity comprising more than 70% of the cells)

Same assay, conditions: Jily, conc 0.01 μm

SMILES	Hoechst 33342 nuclear staining score
Nc1nonc1-c1nc2ccccc2n1COc1ccc(Cl)cc1 [Example 88]	0

Same assay, conditions: Jily, conc 0.1 μm

SMILES	Hoechst 33342 nuclear staining score
Nc1nonc1-c1nc2ccccc2n1COc1ccc(Cl)cc1 [Example 88]	0

Same assay, conditions: Jily, conc 1 μm

SMILES	Hoechst 33342 nuclear staining score
Nc1nonc1-c1nc2ccccc2n1COc1ccc(Cl)cc1 [Example 88]	1 (1 relating to weak activity comprising less than 70% of the cells)

Same assay, conditions: Jurkat, conc 0.01 μm

SMILES	Hoechst 33342 nuclear staining score
Nc1nonc1-c1nc2ccccc2n1COc1ccc(Cl)cc1 [Example 88]	0

Same assay, conditions: Jurkat, conc 0.1 μm

SMILES	Hoechst 33342 nuclear staining score
Nc1nonc1-c1nc2ccccc2n1COc1ccc(Cl)cc1 [Example 88]	0

Same assay, conditions: Jurkat, conc 1 μm

SMILES	Hoechst 33342 nuclear staining score
Nc1nonc1-c1nc2ccccc2n1COc1ccc(Cl)cc1 [Example 88]	2 (score 2 relating to strong activity comprising more than 70% of the cells)

Same assay, conditions: MRC5, conc 0.01 μm

SMILES	Hoechst 33342 nuclear staining score
Nc1nonc1-c1nc2ccccc2n1COc1ccc(Cl)cc1 [Example 88]	0

Same assay, conditions: MRC5, conc 0.1 μm

SMILES	Hoechst 33342 nuclear staining score
Nc1nonc1-c1nc2ccccc2n1COc1ccc(Cl)cc1 [Example 88]	0

Same assay, conditions: MRC5, conc 1 μm

SMILES	Hoechst 33342 nuclear staining score
Nc1nonc1-c1nc2ccccc2n1COc1ccc(Cl)cc1 [Example 88]	0

Same assay, conditions: PBLs, conc 0.01 μm

SMILES	Hoechst 33342 nuclear staining score
Nc1nonc1-c1nc2ccccc2n1COc1ccc(Cl)cc1 [Example 88]	0

Same assay, conditions: PBLs, conc 0.1 μm

SMILES	Hoechst 33342 nuclear staining score
Nc1nonc1-c1nc2ccccc2n1COc1ccc(Cl)cc1 [Example 88]	0

Same assay, conditions: PBLs, conc 1 μm

SMILES	Hoechst 33342 nuclear staining score
Nc1nonc1-c1nc2ccccc2n1COc1ccc(Cl)cc1 [Example 88]	0
